Patent publication US12226418B2, “Dosing regimen for the treatment of PI3K related disorders” (Incyte Corporation, priority 2018, dated 2025)

Key:
Type in all cases: biochemical
[1] = molecular target: JAK2 (Homo sapiens (Human), UniProt O60674); assay: JAK2/JAK1 selectivity, Assay A at 1 mM ATP; conditions: IC50 ratio
[2] = molecular target: JAK1 (Homo sapiens (Human), UniProt P23458); assay: JAK1 IC50, Assay A of U.S. Ser. No. 14/680,659 at 1 mM ATP
[3] = molecular target: PI3Kδ (p110δ/p85α) (Homo sapiens (Human), UniProt O00329); assay: PI3Kδ scintillation proximity assay; conditions: 20 μM ATP; read-out: PI3Kδ SPA IC50
Excerpt: [γ-^33P]ATP (10 mCi/mL) was purchased from Perkin-Elmer (Waltham, MA). Lipid kinase substrate, D-myo-Phosphatidylinositol 4,5-bisphosphate (PtdIns(4,5)P2)D (+)-sn-1,2-di-O-octanoylglyceryl, 3-O-phospho linked (PIP2), CAS 204858-53-7, was purchased from Echelon Biosciences (Salt Lake City, UT). PI3Kδ (p110δ/p85α) was purchased from Millipore (Bedford, MA). ATP, MgCl2, DTT, EDTA, MOPS and CHAPS were purchased from Sigma-Aldrich (St. Louis, MO). Wheat Germ Agglutinin (WGA) YSi SPA Scintillation Beads was purchased from GE healthcare life sciences (Piscataway, NJ).
The kinase reaction was conducted in polystyrene 384-well matrix white plate from Thermo Fisher Scientific in a final volume of 25 μL. Inhibitors were first diluted serially in DMSO and added to the plate wells before the addition of other reaction components. The final concentration of DMSO in the assay was 0.5%. The PI3K assays were carried out at room temperature in 20 mM MOPS, pH 6.7, 10 mM MgCl2, 5 mM DTT and CHAPS 0.03%. Reactions were initiated by the addition of ATP, the final reaction mixture consisted of 20 μM PIP2, 20 μM ATP, 0.2 μCi [γ-^33P]ATP, 4 nM PI3Kδ. Reactions were incubated for 210 min and terminated by the addition of 40 μL SPA beads suspended in quench buffer: 150 mM potassium phosphate pH 8.0, 20% glycerol. 25 mM EDTA, 400 μM ATP. The final concentration of SPA beads was 1.0 mg/mL. After the plate sealing, plates were shaken overnight at room temperature and centrifuged at 1800 rpm for 10 minutes, the radioactivity of the product was determined by scintillation counting on Topcount (Perkin-Elmer). IC50 determination was performed by fitting the curve of percent control activity versus the log of the inhibitor concentration using the GraphPad Prism 3.0 software. IC50 data for the Examples is presented in Table B as determined by Assay A.

Chain of JAK1 (P23458 837-1142): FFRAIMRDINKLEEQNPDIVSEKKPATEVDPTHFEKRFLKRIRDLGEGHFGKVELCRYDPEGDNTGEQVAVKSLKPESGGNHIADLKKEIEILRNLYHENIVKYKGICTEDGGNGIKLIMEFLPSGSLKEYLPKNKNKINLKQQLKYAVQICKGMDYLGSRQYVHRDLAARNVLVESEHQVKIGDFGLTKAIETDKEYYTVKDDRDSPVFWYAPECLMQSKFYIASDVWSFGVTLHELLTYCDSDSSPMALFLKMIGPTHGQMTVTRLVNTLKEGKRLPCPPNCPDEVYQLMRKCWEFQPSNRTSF
Chain of PI3Kδ (p110δ/p85α) (O00329 whole entry): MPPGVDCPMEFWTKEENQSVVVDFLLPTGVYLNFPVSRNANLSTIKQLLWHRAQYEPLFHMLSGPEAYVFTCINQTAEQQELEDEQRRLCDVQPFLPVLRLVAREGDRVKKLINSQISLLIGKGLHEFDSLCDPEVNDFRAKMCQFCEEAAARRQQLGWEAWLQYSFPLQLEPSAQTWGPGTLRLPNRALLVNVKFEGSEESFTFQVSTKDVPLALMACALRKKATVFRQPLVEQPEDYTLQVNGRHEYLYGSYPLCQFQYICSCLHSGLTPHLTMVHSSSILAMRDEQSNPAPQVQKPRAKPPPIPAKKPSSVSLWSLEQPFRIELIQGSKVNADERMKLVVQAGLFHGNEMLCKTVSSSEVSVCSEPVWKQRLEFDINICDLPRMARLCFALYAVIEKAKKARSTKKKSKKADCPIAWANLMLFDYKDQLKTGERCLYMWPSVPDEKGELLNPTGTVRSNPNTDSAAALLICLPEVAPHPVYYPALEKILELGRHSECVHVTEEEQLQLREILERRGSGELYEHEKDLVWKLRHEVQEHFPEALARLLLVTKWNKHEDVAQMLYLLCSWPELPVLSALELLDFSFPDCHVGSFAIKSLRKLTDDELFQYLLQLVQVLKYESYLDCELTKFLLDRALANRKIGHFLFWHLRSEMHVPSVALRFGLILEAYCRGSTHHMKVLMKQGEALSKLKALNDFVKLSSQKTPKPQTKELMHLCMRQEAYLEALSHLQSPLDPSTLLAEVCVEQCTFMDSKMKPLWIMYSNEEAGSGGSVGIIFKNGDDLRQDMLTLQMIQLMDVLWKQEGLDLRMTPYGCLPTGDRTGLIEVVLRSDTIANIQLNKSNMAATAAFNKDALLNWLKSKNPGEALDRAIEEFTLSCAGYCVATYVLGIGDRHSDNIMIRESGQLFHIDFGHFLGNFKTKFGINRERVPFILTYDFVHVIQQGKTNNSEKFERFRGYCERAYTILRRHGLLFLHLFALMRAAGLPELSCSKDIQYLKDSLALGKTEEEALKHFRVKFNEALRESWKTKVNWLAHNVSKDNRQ
Chain of PI3Kδ (p110δ/p85α) (P27986 whole entry partner): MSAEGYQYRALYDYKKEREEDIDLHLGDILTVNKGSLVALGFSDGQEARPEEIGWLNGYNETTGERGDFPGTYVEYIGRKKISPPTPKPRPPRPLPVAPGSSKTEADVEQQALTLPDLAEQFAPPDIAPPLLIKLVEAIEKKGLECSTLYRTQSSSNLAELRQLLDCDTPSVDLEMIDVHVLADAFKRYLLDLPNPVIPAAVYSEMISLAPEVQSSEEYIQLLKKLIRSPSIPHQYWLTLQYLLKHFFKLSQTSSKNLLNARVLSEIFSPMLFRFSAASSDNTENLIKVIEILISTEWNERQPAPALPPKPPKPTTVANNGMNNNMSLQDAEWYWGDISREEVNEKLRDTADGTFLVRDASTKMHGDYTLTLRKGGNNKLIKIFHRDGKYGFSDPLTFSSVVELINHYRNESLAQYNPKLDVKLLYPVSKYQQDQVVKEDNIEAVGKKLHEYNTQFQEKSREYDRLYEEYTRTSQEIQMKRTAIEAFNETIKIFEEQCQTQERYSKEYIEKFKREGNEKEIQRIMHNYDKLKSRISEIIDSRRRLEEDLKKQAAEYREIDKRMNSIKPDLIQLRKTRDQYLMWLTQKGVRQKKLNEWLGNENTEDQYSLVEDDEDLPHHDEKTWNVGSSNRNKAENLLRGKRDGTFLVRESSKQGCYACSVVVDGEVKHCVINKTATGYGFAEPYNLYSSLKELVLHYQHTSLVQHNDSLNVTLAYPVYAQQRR
Chain of JAK2 (O60674 828-1132): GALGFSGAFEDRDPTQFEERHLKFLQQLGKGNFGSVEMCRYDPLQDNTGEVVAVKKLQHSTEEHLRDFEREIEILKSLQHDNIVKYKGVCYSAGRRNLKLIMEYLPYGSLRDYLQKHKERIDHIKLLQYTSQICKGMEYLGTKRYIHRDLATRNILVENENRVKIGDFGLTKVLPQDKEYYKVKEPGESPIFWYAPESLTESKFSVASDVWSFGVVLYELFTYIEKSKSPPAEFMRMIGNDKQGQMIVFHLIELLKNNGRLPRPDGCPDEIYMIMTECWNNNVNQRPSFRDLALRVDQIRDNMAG

With `C[C@@H](O)CNCc1cc(OC2CCN([C@H]3C[C@](CC#N)(n4cc(-c5ncnc6[nH]ccc56)cn4)C3)CC2)nc(C(F)(F)F)c1` [Example 24] the “JAK2/ JAK1” value [1] was over 10 and the IC50 [2] was under 10 nM.
`N#CCC(CN1CCN(C(=O)c2ccc(C#N)cc2F)CC1)n1cc(-c2ncnc3[nH]ccc23)cn1` (stereo not shown) [Example 5, 4-[(4-{3-cyano-2-[4-(7H-pyrrolo[2,3-d]pyrimidin-4-yl)-1H-pyrazol-1-yl]propyl}piperazin-1-yl)carbonyl]-3-fluorobenzonitrile] was tested, and the “JAK2/ JAK1” value [1] was over 10 and the IC50 [2] was under 10 nM.
With `N#CC[C@]1(n2cc(-c3ncnc4[nH]ccc34)cn2)C[C@H](N2CCC(Oc3cc(CCO)cc(C(F)(F)F)n3)CC2)C1` [Example 26] the “JAK2/ JAK1” value [1] was over 10 and the IC50 [2] was under 10 nM.
With `CC(C)(O)c1cc(O[C@H]2CC[C@@H](N3CC(CC#N)(n4cc(-c5ncnc6[nH]ccc56)cn4)C3)CC2)nc(C(F)(F)F)c1` [Example 20, {1-(cis-4-{[4-(1-hydroxy-1-methylethyl)-6-(trifluoromethyl)pyridin-2-yl]oxy}cyclohexyl)-3-[4-(7H-pyrrolo[2,3-d]pyrimidin-4-yl)-1H-pyrazol-1-yl]azetidin-3-yl}acetonitrile] the “JAK2/ JAK1” value [1] was over 10 and the IC50 [2] was under 10 nM.
For `CCNCc1cc(O[C@H]2CC[C@@H](N3CC(CC#N)(n4cc(-c5ncnc6[nH]ccc56)cn4)C3)CC2)nc(C(F)(F)F)c1` [Example 19, {1-(cis-4-{[4-[(ethylamino)methyl]-6-(trifluoromethyl)pyridin-2-yl]oxy}cyclohexyl)-3-[4-(7H-pyrrolo[2,3-d]pyrimidin-4-yl)-1H-pyrazol-1-yl]azetidin-3-yl}acetonitrile], the “JAK2/ JAK1” value [1] was over 10 and the IC50 [2] was under 10 nM.
In the case of `N#CCC1(n2cc(-c3ncnc4[nH]ccc34)cn2)CN(C2CCN(C(=O)Nc3ccc(F)cc3C(F)(F)F)CC2)C1` [Example 8], the “JAK2/ JAK1” value [1] is reported as over 10 and the IC50 [2] is reported as under 10 nM.
With `N#CCC(C1CCN(c2cccc(Cl)n2)C1)n1cc(-c2ncnc3[nH]ccc23)cn1` (stereo not shown) [Example 3, 3-[1-(6-chloropyridin-2-yl)pyrrolidin-3-yl]-3-[4-(7H-pyrrolo[2,3-d]pyrimidin-4-yl)-1H-pyrazol-1-yl]propanenitrile] the “JAK2/ JAK1” value [1] was over 10 and the IC50 [2] was under 10 nM.
In the case of `CCOc1c(C(C)n2nc(C)c3c(N)ncnc32)cc(Cl)c(F)c1C1CNC(=O)O1` (single isomer, unassigned) [Example 2D, 5-{3-[1-(4-amino-3-methyl-1H-pyrazolo[3,4-d]pyrimidin-1-yl)ethyl]-5-chloro-2-ethoxy-6-fluorophenyl}-1,3-oxazolidin-2-one], the IC50 [3] is reported as over 500 nM.
`N#CCC1(n2cc(-c3ncnc4[nH]ccc34)cn2)CN(C2CCN(C(=O)c3ccnc(C(F)(F)F)n3)CC2)C1` [Example 9, [3-[4-(7H-pyrrolo[2,3-d]pyrimidin-4-yl)-1H-pyrazol-1-yl]-1-(1-{[2-(trifluoromethyl)pyrimidin-4-yl]carbonyl}piperidin-4-yl)azetidin-3-yl]acetonitrile] was tested, and the “JAK2/ JAK1” value [1] was over 10 and the IC50 [2] was under 10 nM.
For `CCOc1c(C(C)n2nc(C)c3c(N)ncnc32)cc(Cl)c(F)c1C1CNC(=O)O1` (single isomer, unassigned) [Example 2B, 5-{3-[1-(4-amino-3-methyl-1H-pyrazolo[3,4-d]pyrimidin-1-yl)ethyl]-5-chloro-2-ethoxy-6-fluorophenyl}-1,3-oxazolidin-2-one], the IC50 [3] was 50 to 200 nM.
For `N#CCC1(n2cc(-c3ncnc4[nH]ccc34)cn2)CN([C@H]2CC[C@@H](Oc3cc(CN4CC[C@H](O)C4)cc(C(F)(F)F)n3)CC2)C1` [Example 22, {1-(cis-4-{[4-{[(3S)-3-hydroxypyrrolidin-1-yl]methyl}-6-(trifluoromethyl)pyridin-2-yl]oxy}cyclohexyl)-3-[4-(7H-pyrrolo[2,3-d]pyrimidin-4-yl)-1H-pyrazol-1-yl]azetidin-3-yl}acetonitrile], the “JAK2/ JAK1” value [1] was over 10 and the IC50 [2] was under 10 nM.
`CCOc1c(C(C)n2nc(C)c3c(N)ncnc32)cc(Cl)c(F)c1C1CNC(=O)C1` (single isomer, unassigned) [Example 1A, 4-{3-[1-(4-amino-3-methyl-1H-pyrazolo[3,4-d]pyrimidin-1-yl)ethyl]-5-chloro-2-ethoxy-6-fluorophenyl}pyrrolidin-2-one] showed an IC50 [3] of 50 to 200 nM.
In the case of `N#CCC(C1CCN(c2nc3cccnc3o2)C1)n1cc(-c2ncnc3[nH]ccc23)cn1` (stereo not shown) [Example 4, 3-(1-[1,3]oxazolo[5,4-b]pyridin-2-ylpyrrolidin-3-yl)-3-[4-(7H-pyrrolo[2,3-d]pyrimidin-4-yl)-1H-pyrazol-1-yl]propanenitrile], the “JAK2/ JAK1” value [1] is reported as over 10 and the IC50 [2] is reported as under 10 nM.
With `N#CC[C@]1(n2cc(-c3ncnc4[nH]ccc34)cn2)C[C@H](N2CCC(Oc3cc(CN4CCC[C@@H]4CO)cc(C(F)(F)F)n3)CC2)C1` [Example 13] the “JAK2/ JAK1” value [1] was over 10 and the IC50 [2] was under 10 nM.
`C[C@@H](O)c1nc2cnc3ccsc3c2n1[C@H]1CC[C@H](CC#N)OC1` [Example 1, ((2R,5S)-5-{2-[(1R)-1-hydroxyethyl]-1H-imidazo[4,5-d]thieno[3,2-b]pyridin-1-yl}tetrahydro-2H-pyran-2-yl)acetonitrile] was tested, and the “JAK2/ JAK1” value [1] was over 10 and the IC50 [2] was under 100 nM.
In the case of `N#CCC(CN1CCN(C(=O)c2ccc(C#N)cc2F)CC1)n1ccc(-c2ncnc3[nH]ccc23)c1` (stereo not shown) [Example 6, 4-[(4-{3-cyano-2-[3-(7H-pyrrolo[2,3-d]pyrimidin-4-yl)-1H-pyrrol-1-yl]propyl}piperazin-1-yl)carbonyl]-3-fluorobenzonitrile], the “JAK2/ JAK1” value [1] is reported as over 10 and the IC50 [2] is reported as under 10 nM.
In the case of `C[C@H](NC(=O)c1cc(F)c(N2CC(CC#N)(n3cc(-c4ncnc5[nH]ccc45)cn3)C2)cc1F)C(F)(F)F` [Example 16, 4-{3-(cyanomethyl)-3-[4-(7H-pyrrolo[2,3-d]pyrimidin-4-yl)-1H-pyrazol-1-yl]azetidin-1-yl}-2,5-difluoro-N-[(1S)-2,2,2-trifluoro-1-methylethyl]benzamide], the “JAK2/ JAK1” value [1] is reported as over 10 and the IC50 [2] is reported as under 10 nM.
`N#CC[C@]1(n2cc(-c3ncnc4[nH]ccc34)cn2)C[C@H](N2CCC(Oc3cc(CN4CCC[C@H]4CO)cc(C(F)(F)F)n3)CC2)C1` [Example 12] was tested, and the “JAK2/ JAK1” value [1] was over 10 and the IC50 [2] was under 10 nM.
For `N#CCC1(n2cc(-c3ncnc4[nH]ccc34)cn2)CN(C2CCN(C(=O)c3ccnc(C(F)(F)F)c3F)CC2)C1` [Example 7], the “JAK2/ JAK1” value [1] was over 10 and the IC50 [2] was under 10 nM.
In the case of `N#CC[C@]1(n2cc(-c3ncnc4[nH]ccc34)cn2)C[C@H](N2CCC(Oc3cc(CN4CC(O)C4)cc(C(F)(F)F)n3)CC2)C1` [Example 11], the “JAK2/ JAK1” value [1] is reported as over 10 and the IC50 [2] is reported as under 10 nM.
`CCOc1c(C(C)n2nc(C)c3c(N)ncnc32)cc(Cl)c(F)c1C1CNC(=O)O1` (single isomer, unassigned) [Example 2A, 5-{3-[1-(4-amino-3-methyl-1H-pyrazolo[3,4-d]pyrimidin-1-yl)ethyl]-5-chloro-2-ethoxy-6-fluorophenyl}-1,3-oxazolidin-2-one] gave an IC50 [3] of 50 to 200 nM.
`N#CCC1(n2cc(-c3ncnc4[nH]ccc34)cn2)CN([C@H]2CC[C@@H](Oc3cc(CN4CC[C@@H](O)C4)cc(C(F)(F)F)n3)CC2)C1` [Example 21, {1-(cis-4-{[4-{[(3R)-3-hydroxypyrrolidin-1-yl]methyl}-6-(trifluoromethyl)pyridin-2-yl]oxy}cyclohexyl)-3-[4-(7H-pyrrolo[2,3-d]pyrimidin-4-yl)-1H-pyrazol-1-yl]azetidin-3-yl}acetonitrile] was tested, and the “JAK2/ JAK1” value [1] was over 10 and the IC50 [2] was under 10 nM.
In the case of `N#CC[C@]1(n2cc(-c3ncnc4[nH]ccc34)cn2)C[C@H](N2CCN(C(=O)c3ccnc(C(F)(F)F)n3)CC2)C1` [Example 10], the “JAK2/ JAK1” value [1] is reported as over 10 and the IC50 [2] is reported as under 10 nM.
For `C[C@H](O)CNCc1cc(OC2CCN([C@H]3C[C@](CC#N)(n4cc(-c5ncnc6[nH]ccc56)cn4)C3)CC2)nc(C(F)(F)F)c1` [Example 25], the “JAK2/ JAK1” value [1] was over 10 and the IC50 [2] was under 10 nM.
With `N#CCC1(n2cc(-c3ncnc4[nH]ccc34)cn2)CN([C@H]2CC[C@@H](Oc3cc(CCO)nc(C(F)(F)F)n3)CC2)C1` [Example 18, {1-(cis-4-{[6-(2-hydroxyethyl)-2-(trifluoromethyl)pyrimidin-4-yl]oxy}cyclohexyl)-3-[4-(7H-pyrrolo[2,3-d]pyrimidin-4-yl)-1H-pyrazol-1-yl]azetidin-3-yl}acetonitrile] the “JAK2/ JAK1” value [1] was over 10 and the IC50 [2] was under 10 nM.
For `C[C@@H](CO)NCc1cc(OC2CCN([C@H]3C[C@](CC#N)(n4cc(-c5ncnc6[nH]ccc56)cn4)C3)CC2)nc(C(F)(F)F)c1` [Example 23], the “JAK2/ JAK1” value [1] was over 10 and the IC50 [2] was under 10 nM.
Molecule `CCOc1c(C(C)n2nc(C)c3c(N)ncnc32)cc(Cl)c(F)c1C1CNC(=O)C1` (single isomer, unassigned) [Example 1D, 4-{3-[1-(4-amino-3-methyl-1H-pyrazolo[3,4-d]pyrimidin-1-yl)ethyl]-5-chloro-2-ethoxy-6-fluorophenyl}pyrrolidin-2-one] has an IC50 [3] of 50 to 200 nM.
